# Data published in US20250288562A1, “Methods and Compositions for Treating Hidradenitis Suppurativa” (Regranion, LLC, priority 2022, published 2025).
# Where “and” joins values, the source holds several entries; their conditions need not be identical. Equal values may be shown once. Read-outs that look alike come from different tables or passages of the source.
# Legend:
# [1] = test system: subjects with moderate to severe hidradenitis suppurativa; assay: Placebo controlled clinical study of Compound 1 in hidradenitis suppurativa patients; type: in vivo, human
# Description: A placebo controlled clinical study was conducted to assess the efficacy of Compound 1 in HS patients. The study design is summarized below.
# Fifteen patients were entered into the study and randomly assigned to the Compound 1 arm (10 patients) or the placebo arm (5 patients). The study was open to male or female subjects aged 18 years or older with hidradenitis suppurativa with minimum 5 inflammatory nodules in at least 2 distinct anatomic areas. The study was conducted in Denmark.
# The study duration was approximately 24 weeks, including a 4-week screening phase, a 16-week treatment phase, and a 4-week observational follow-up phase to assess for hidradenitis suppurativa relapse and flare.
# The primary objective of the study was to evaluate the efficacy of Compound 1 in subjects with moderate to severe hidradenitis suppurativa. The secondary objectives were to (1) evaluate the efficacy of Compound 1 on other clinical disease activity parameters in subject with moderate to severe hidradenitis suppurativa and (2) to evaluate the safety of Compound 1 in subjects with moderate to severe hidradenitis suppurativa.
# The primary efficacy endpoint of the study was the percentage of subjects achieving Hidradenitis Suppurativa Clinical Response 50 (HiSCR-50) score at Week 16. The secondary efficacy endpoints were: • (1) the percentage of subjects with Hidradenitis Suppurativa Physician's Global Assessment (HS-PGA) scores of clear or minimal at Weeks 2, 4, 8, 12, 14, 16, and 20; • (2) the percentage of subjects achieving HiSCR-50, HiSCR-75, and HISCR-90 at Weeks 2, 4, 8, 12, 14, 16, and 20; • (3) changes from baseline in the Dermatology Life Quality Index (DLQI) total score at Weeks 4, 8, 12, 16, and 20; • (4) changes from baseline in the Pain Numerical Ranging score at Weeks 4, 8, 12, 16, and 20; • (5) change and percent change from Baseline in lesion counts (abscess count, inflammatory nodule count, AN count, and draining tunnel count); • (6) change from baseline in skin biomarkers at Week 16; • (7) change from baseline in blood biomarkers at Weeks 4, 8, 12, and 16.
# This was a 16-week treatment, randomized, double-blind, proof-of-concept study designed to assess the safety and efficacy of Compound 1 compared to placebo for use in future efficacy Phase 2 trials.
# Eligible subjects completed an up-to 4-week screening phase and sequentially be randomized 2:1 to one of two cohorts, treatment cohort (n=10) or placebo-control cohort (n=5), in a 16-week treatment phase followed by a 4-week observational follow-up phase. In the 16-week treatment phase, subjects randomized to the treatment group receive 250 mg Compound 1 free base in the form of a tablet administered orally once daily. The 250 mg dose was selected based on the results of an earlier oncology trial conducted with doses in excess of 1000 mg/day as a safe minimal dose from which to conduct dose escalation if required. Subjects randomized to the placebo-control group receive placebo treatment once daily (microcrystalline cellulose, mannitol, crospovidone, Opadry II red, magnesium stearate, colloidal silicon dioxide).
# HiSCR, HS-PGA, Pain-NRS, and DLQI were performed to assess efficacy. Safety was assessed with the vital signs, physical examination, clinical laboratory tests, ECG, and collection of AEs.
# HSP-90 = settings: read-out: IC50 for inhibition of HSP-90; cited from earlier work
# [2] = Accumulation of Compound 1 in skin punch biopsies of HS patients; type: in vivo, human
# Description: The accumulation of Compound 1 in the skin of human HS patients in the clinical study described in Example 1 was determined. […] FIG. 6 is a graph showing the concentrations of Compound 1 found in the biopsied tissues in subjects grouped according to their clinical response to Compound 1 therapy. The mean skin concentration following 16 weeks of treatment with Compound 1 was 7130 ng/mg, which is equivalent to 16.1 mM.
# [3] = Plasma pharmacokinetics after a single oral dose in healthy male subjects; type: in vivo, human; settings: single oral dose of 250 mg; for Cmax: male, human, po, 250 mg
# Description: The skin accumulation found in this study was compared to plasma levels of Compound 1 determined in a previous study in healthy human volunteers. Six healthy male subjects were given a single oral dose of 250 mg Compound 1, and plasma samples were collected pre-dose and at 0.25, 0.5, 0.75, 1, 1.5, 2, 2.5, 3, 4, 6, 8, 10, 12, 18, 24, 30, 36, 48, 72 and 96 hours after dosing.
# [4] = following 16 weeks of treatment, 250 mg orally once daily, skin punch biopsies
# [5] = individual healthy male subjects
smiles,measurement,setting,value
CN(C)c1cc2c(cc1Sc1nc3c(N)nccc3n1CCNCC(C)(C)C)OCO2 [Compound 1],likelihood of achieving HiSCR50,"[1]; beginning at 12 weeks and continuing to 16 weeks, 250 mg orally once daily, compared to control",substantially more likely to achieve HiSCR50
same,subjects achieving HiSCR75,"[1]; by 14 weeks, 250 mg orally once daily, no subjects in the control",50%
same,subjects achieving HiSCR90,"[1]; by 16 weeks, 250 mg orally once daily, no subjects in the control",30%
same,IHS4 at baseline,"[1]; individual subjects of the Compound 1 arm, before treatment",17 and 43 and 14 (2×) and 10 and 6 and 20 (2×) and 28 and 11
same,IHS4 at week 16,"[1]; individual subjects of the Compound 1 arm, 250 mg orally once daily for 16 weeks",4 (2×) and 22 and 3 and 7 (2×) and 21 and 6 and 10 and 2
same,decrease in abscess/nodule (AN) count relative to baseline,"[1]; week 16, 250 mg orally once daily, compared to control",substantially greater decrease in AN count
same,average decrease in HS-PGA compared to baseline,"[1]; week 16, 250 mg orally once daily, control arm showed no change",0.8
same,subjects showing a decrease in IHS4 score,"[1]; week 16 versus baseline, Compound 1 arm (n=10)",Nine of the ten
same,accumulation in the skin relative to plasma,"[2]; daily oral dosing at 250 mg, skin versus plasma of healthy volunteers","approximately 100,000 fold"
same,mean skin concentration,[2]; [4],7130 ng/mg
same,mean skin concentration (molar equivalent),[2]; [4],16.1 mM
same,Cmax,"[3]; read-out: Cmax, range over six subjects",19.4 to 24.9 ng/mL
same,Cmax,"[3]; six subjects, read-out: Cmax, median",20.3 ng/mL
same,Cmax,"[3]; six subjects, read-out: Cmax, median (molar)",46 nM
same,AUClast,[3]; [5],51.64 ng·h/mL and 70.13 ng·h/mL and 36.82 ng·h/mL and 25.64 ng·h/mL and 45.08 ng·h/mL and 54.08 ng·h/mL
same,AUC∞,[3]; [5],51.64 ng·h/mL and 85.79 ng·h/mL and 36.82 ng·h/mL and 25.64 ng·h/mL and 45.08 ng·h/mL and 54.08 ng·h/mL
